Laboratory results published in the supplement of paper PMC11451515.

How the values were obtained:
Details in all cases: 48 h
NOMO1 [1] = assay: cell viability relative to DMSO control; higher = less cytotoxic
Summary of the method: (§1)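 NOMO1 or SEM cells were plated at 500 cells/well and P12-Ichikawa cells at 1000 cells/well in 1536-well plates (5 μl), after each leukemia line had been adapted for at least four passages in each medium. Pin dosing delivered library compounds in DMSO at 11 threefold concentrations, 47 μM to 0.79 nM. CellTiter-Glo One luminescence was read after 48 h at 37°C. Viability is reported as a per-plate percentage of DMSO wells, with cell-free wells as background.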

P12-Ichikawa [2] = assay: as above
Summary of the method: as §1

SEM cells [3] = assay: as above
Summary of the method: as §1

NOMO1 [4] = assay: AUC of viability dose-response curve (% viability x log10 dose units); higher = less sensitive
Summary of the method: (§2)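 Leukemia cells adapted to each medium (500 or 1000 cells/well, 1536-well plates) were exposed to library compounds in DMSO for 48 h at 37°C at 11 threefold doses, 47 μM to 0.79 nM. Luminescence by CellTiter-Glo One was normalised per plate to DMSO and cell-free wells, then fitted with a four-parameter log-logistic curve on log10 dose. Curves above full viability were scaled and quality-control failures removed before area under the curve was integrated by trapezoidal rule.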

P12-Ichikawa [5] = assay: as above
Summary of the method: as §2

SEM cells [6] = assay: as above
Summary of the method: as §2

C=CC(=O)Nc1cccc(Oc2nc(Nc3ccc(N4CCN(C)CC4)cc3)ncc2Cl)c1
cell viability [%]
Details | NOMO1 [1] | P12-Ichikawa [2] | SEM cells [3]
HPLM + 10% dialyzed FBS, 0.000781 µM | 93.3 | 109 | 94.3
HPLM + 10% dialyzed FBS, 0.00234 µM | 110 | 123 | 112
HPLM + 10% dialyzed FBS, 0.00702 µM | 119 | 123 | 109
HPLM + 10% dialyzed FBS, 0.0211 µM | 125 | 122 | 116
HPLM + 10% dialyzed FBS, 0.0632 µM | 131 | 131 | 128
HPLM + 10% dialyzed FBS, 0.19 µM | 112 | 130 | 111
HPLM + 10% dialyzed FBS, 0.569 µM | 106 | 122 | 104
HPLM + 10% dialyzed FBS, 1.71 µM | 97.2 | 113 | 83
HPLM + 10% dialyzed FBS, 5.12 µM | 88.3 | 102 | 22.1
HPLM + 10% dialyzed FBS, 15.4 µM | 84.9 | 22.4 | 21.6
HPLM + 10% dialyzed FBS, 46.1 µM | 135 | 52.5 | 22.2
RPMI 5 mM glucose + 10% dialyzed FBS, 0.000781 µM | – | – | 108
RPMI 5 mM glucose + 10% dialyzed FBS, 0.00234 µM | – | – | 107
RPMI 5 mM glucose + 10% dialyzed FBS, 0.00702 µM | – | – | 125
RPMI 5 mM glucose + 10% dialyzed FBS, 0.0211 µM | – | – | 124
RPMI 5 mM glucose + 10% dialyzed FBS, 0.0632 µM | – | – | 128
RPMI 5 mM glucose + 10% dialyzed FBS, 0.19 µM | – | – | 111
RPMI 5 mM glucose + 10% dialyzed FBS, 0.569 µM | – | – | 103
RPMI 5 mM glucose + 10% dialyzed FBS, 1.71 µM | – | – | 71.8
RPMI 5 mM glucose + 10% dialyzed FBS, 5.12 µM | – | – | 21.1
RPMI 5 mM glucose + 10% dialyzed FBS, 15.4 µM | – | – | 15
RPMI 5 mM glucose + 10% dialyzed FBS, 46.1 µM | – | – | 10.4

AUC of viability dose-response curve
Details | NOMO1 [4] | P12-Ichikawa [5] | SEM cells [6]
HPLM + 10% dialyzed FBS | 465 | 420 | 369
RPMI 5 mM glucose + 10% FBS | 454 | 392 | 303
RPMI 5 mM glucose + 10% dialyzed FBS | 459 | 421 | 351

COc1ccc(-c2cc3nccn3c(Nc3ncccc3C(N)=O)n2)cc1OC
cell viability [%]
Details | NOMO1 [1] | P12-Ichikawa [2] | SEM cells [3]
HPLM + 10% dialyzed FBS, 0.000781 µM | 125 | 103 | 81.8
HPLM + 10% dialyzed FBS, 0.00234 µM | 111 | 112 | 92.1
HPLM + 10% dialyzed FBS, 0.00702 µM | 107 | 110 | 90.4
HPLM + 10% dialyzed FBS, 0.0211 µM | 117 | 112 | 86.8
HPLM + 10% dialyzed FBS, 0.0632 µM | 124 | 113 | 85.7
HPLM + 10% dialyzed FBS, 0.19 µM | 111 | 119 | 91.4
HPLM + 10% dialyzed FBS, 0.569 µM | 110 | 117 | 85.3
HPLM + 10% dialyzed FBS, 1.71 µM | 96.6 | 115 | 61.6
HPLM + 10% dialyzed FBS, 5.12 µM | 109 | 116 | 74.4
HPLM + 10% dialyzed FBS, 15.4 µM | 89 | 114 | 65.9
HPLM + 10% dialyzed FBS, 46.1 µM | 93 | 109 | 58.8
RPMI 5 mM glucose + 10% FBS, 0.000781 µM | 90 | 97.4 | 82.7
RPMI 5 mM glucose + 10% FBS, 0.00234 µM | 95.3 | 109 | 105
RPMI 5 mM glucose + 10% FBS, 0.00702 µM | 118 | 105 | 103
RPMI 5 mM glucose + 10% FBS, 0.0211 µM | 107 | 111 | 100
RPMI 5 mM glucose + 10% FBS, 0.0632 µM | 99.7 | 111 | 99
RPMI 5 mM glucose + 10% FBS, 0.19 µM | 111 | 109 | 87.2
RPMI 5 mM glucose + 10% FBS, 0.569 µM | 95 | 97.4 | 89.2
RPMI 5 mM glucose + 10% FBS, 1.71 µM | 103 | 104 | 63.1
RPMI 5 mM glucose + 10% FBS, 5.12 µM | 102 | 114 | 81
RPMI 5 mM glucose + 10% FBS, 15.4 µM | 92.7 | 107 | 60.7
RPMI 5 mM glucose + 10% FBS, 46.1 µM | 103 | 96.5 | 58.1
RPMI 5 mM glucose + 10% dialyzed FBS, 0.000781 µM | 106 | 99 | 85.7
RPMI 5 mM glucose + 10% dialyzed FBS, 0.00234 µM | 106 | 111 | 91.6
RPMI 5 mM glucose + 10% dialyzed FBS, 0.00702 µM | 113 | 111 | 86.6
RPMI 5 mM glucose + 10% dialyzed FBS, 0.0211 µM | 95.2 | 105 | 101
RPMI 5 mM glucose + 10% dialyzed FBS, 0.0632 µM | 116 | 110 | 91
RPMI 5 mM glucose + 10% dialyzed FBS, 0.19 µM | 107 | 115 | 76.2
RPMI 5 mM glucose + 10% dialyzed FBS, 0.569 µM | 106 | 116 | 68.5
RPMI 5 mM glucose + 10% dialyzed FBS, 1.71 µM | 105 | 90.9 | 49.9
RPMI 5 mM glucose + 10% dialyzed FBS, 5.12 µM | 107 | 114 | 59.3
RPMI 5 mM glucose + 10% dialyzed FBS, 15.4 µM | 109 | 101 | 49.1
RPMI 5 mM glucose + 10% dialyzed FBS, 46.1 µM | 101 | 102 | 49.5

AUC of viability dose-response curve
Details | NOMO1 [4] | P12-Ichikawa [5] | SEM cells [6]
HPLM + 10% dialyzed FBS | 444 | 471 | 380
RPMI 5 mM glucose + 10% FBS | 476 | 475 | 405
RPMI 5 mM glucose + 10% dialyzed FBS | 473 | 471 | 352

C\C1=C\C(=O)OC2=C1C=CC(=C2)O
cell viability [%]
Details | NOMO1 [1] | P12-Ichikawa [2] | SEM cells [3]
HPLM + 10% dialyzed FBS, 0.000781 µM | 119 | 122 | 120
HPLM + 10% dialyzed FBS, 0.00234 µM | 129 | 121 | 114
HPLM + 10% dialyzed FBS, 0.00702 µM | 122 | 121 | 126
HPLM + 10% dialyzed FBS, 0.0211 µM | 133 | 122 | 119
HPLM + 10% dialyzed FBS, 0.0632 µM | 120 | 109 | 118
HPLM + 10% dialyzed FBS, 0.19 µM | 130 | 116 | 119
HPLM + 10% dialyzed FBS, 0.569 µM | 120 | 108 | 128
HPLM + 10% dialyzed FBS, 1.71 µM | 118 | 107 | 77.1
HPLM + 10% dialyzed FBS, 5.12 µM | 113 | 106 | 122
HPLM + 10% dialyzed FBS, 15.4 µM | 110 | 102 | 111
HPLM + 10% dialyzed FBS, 46.1 µM | 104 | 93 | 109
RPMI 5 mM glucose + 10% FBS, 0.000781 µM | 116 | 112 | 98.1
RPMI 5 mM glucose + 10% FBS, 0.00234 µM | 122 | 119 | 118
RPMI 5 mM glucose + 10% FBS, 0.00702 µM | 117 | 115 | 108
RPMI 5 mM glucose + 10% FBS, 0.0211 µM | 111 | 122 | 104
RPMI 5 mM glucose + 10% FBS, 0.0632 µM | 119 | 109 | 118
RPMI 5 mM glucose + 10% FBS, 0.19 µM | 122 | 114 | 110
RPMI 5 mM glucose + 10% FBS, 0.569 µM | 105 | 107 | 118
RPMI 5 mM glucose + 10% FBS, 1.71 µM | 120 | 111 | 87.3
RPMI 5 mM glucose + 10% FBS, 5.12 µM | 117 | 99.9 | 108
RPMI 5 mM glucose + 10% FBS, 15.4 µM | 123 | 118 | 97.1
RPMI 5 mM glucose + 10% FBS, 46.1 µM | 106 | 99.1 | 92.1
RPMI 5 mM glucose + 10% dialyzed FBS, 0.000781 µM | 117 | 122 | 120
RPMI 5 mM glucose + 10% dialyzed FBS, 0.00234 µM | 118 | 115 | 119
RPMI 5 mM glucose + 10% dialyzed FBS, 0.00702 µM | 120 | 114 | 146
RPMI 5 mM glucose + 10% dialyzed FBS, 0.0211 µM | 118 | 122 | 136
RPMI 5 mM glucose + 10% dialyzed FBS, 0.0632 µM | 110 | 120 | 135
RPMI 5 mM glucose + 10% dialyzed FBS, 0.19 µM | 108 | 108 | 117
RPMI 5 mM glucose + 10% dialyzed FBS, 0.569 µM | 104 | 114 | 114
RPMI 5 mM glucose + 10% dialyzed FBS, 1.71 µM | 102 | 104 | 75.2
RPMI 5 mM glucose + 10% dialyzed FBS, 5.12 µM | 109 | 103 | 117
RPMI 5 mM glucose + 10% dialyzed FBS, 15.4 µM | 113 | 104 | 117
RPMI 5 mM glucose + 10% dialyzed FBS, 46.1 µM | 90.7 | 106 | 115

AUC of viability dose-response curve
Details | NOMO1 [4] | P12-Ichikawa [5] | SEM cells [6]
HPLM + 10% dialyzed FBS | 456 | 436 | 452
RPMI 5 mM glucose + 10% FBS | 470 | 457 | 455
RPMI 5 mM glucose + 10% dialyzed FBS | 439 | 452 | 434
